# Test system: not given
# Assay: not given
# Settings: not given
row,melting point [°C],SMILES
1,138 to 139,CC1(C)Cc2nc(C3CCCC3)c([C@@H](F)c3ccc(C(F)(F)F)cc3)c(-c3ccc(Cl)cc3)c2[C@@H](O)C1 [Example 55]
2,106 to 108,Cc1ccc(-c2c(Cc3ccc(C(F)(F)F)cc3)c(C3CCCC3)nc3c2[C@@H](O)CC(C)(C)C3)cc1 [Example 62]
3,136 to 137,CC1(C)Cc2nc(C3CCCC3)c(Cc3ccc(C(F)(F)F)cc3)c(-c3ccc(Cl)cc3)c2[C@@H](O)C1 [Example 56]
4,168 to 169,CC1(C)Cc2nc(C3CCCC3)c(C(=O)c3ccc(C(F)(F)F)cc3)c(-c3ccc(Cl)cc3)c2[C@@H](O)C1 [Example 52]
5,153 to 155,Cc1ccc(-c2c(C(=O)c3ccc(C(F)(F)F)cc3)c(C3CCCC3)nc3c2[C@@H](O)CC(C)(C)C3)cc1 [Example 51]
6,156 to 158,Cc1ccc(-c2c([C@@H](F)c3ccc(C(F)(F)F)cc3)c(C3CCCC3)nc3c2[C@@H](O)CC(C)(C)C3)cc1 [Example 53]

# Continued, compound first:
row,SMILES,melting point [°C]
1,CC1(C)Cc2nc(C3CCCC3)c([C@@H](F)c3ccc(C(F)(F)F)cc3)c(-c3cccc(F)c3)c2[C@@H](O)C1 [Example 61],129
2,CC1(C)Cc2nc(C3CCCC3)c(C(=O)c3ccc(C(F)(F)F)cc3)c(-c3cccc(F)c3)c2[C@@H](O)C1 [Example 49],167 to 168
3,CCOc1ccc(-c2c([C@@H](F)c3ccc(C(F)(F)F)cc3)c(C3CCCC3)nc3c2[C@@H](O)CC(C)(C)C3)cc1.Cl,206 to 207
4,CC1(C)Cc2nc(C3CCCC3)c(C(=O)c3ccc(C(F)(F)F)cc3)c(-c3ccc(F)c(F)c3)c2[C@@H](O)C1 [Example 46],166 to 168
5,CC1(C)Cc2nc(C3CCCC3)c([C@@H](F)c3ccc(C(F)(F)F)cc3)c(-c3ccc(C(F)(F)F)cc3)c2[C@@H](O)C1 [Example 54],175 to 176
6,CC1(C)Cc2nc(C3CCCC3)c(C(=O)c3ccc(C(F)(F)F)cc3)c(-c3ccc(C(F)(F)F)cc3)c2[C@@H](O)C1 [Example 48],157 to 162
7,COc1ccc(-c2c(C(=O)c3ccc(C(F)(F)F)cc3)c(C3CCCC3)nc3c2[C@@H](O)CC(C)(C)C3)cc1 [Example 47],171 to 174

# Target: T1, cholesterol ester transfer protein (CETP) (Homo sapiens, UniProt P11597)
# T1 construct: CETP is obtained in partially purified form from human plasma by differential centrifugation and column chromatography; from tissue; host or cells: human plasma
# T1 sequence (P11597 18-493): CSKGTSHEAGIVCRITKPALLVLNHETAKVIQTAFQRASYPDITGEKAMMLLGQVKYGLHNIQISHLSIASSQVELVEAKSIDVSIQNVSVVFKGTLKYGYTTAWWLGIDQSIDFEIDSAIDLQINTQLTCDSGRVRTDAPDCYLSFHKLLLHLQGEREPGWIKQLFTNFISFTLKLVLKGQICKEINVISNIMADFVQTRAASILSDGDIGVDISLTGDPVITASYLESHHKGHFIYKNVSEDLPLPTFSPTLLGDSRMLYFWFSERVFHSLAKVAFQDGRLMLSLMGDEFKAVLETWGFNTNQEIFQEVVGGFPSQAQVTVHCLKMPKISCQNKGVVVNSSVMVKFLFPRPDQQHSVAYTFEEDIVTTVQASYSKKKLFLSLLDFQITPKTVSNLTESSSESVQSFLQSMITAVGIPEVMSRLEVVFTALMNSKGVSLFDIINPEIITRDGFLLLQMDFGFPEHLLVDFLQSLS
# Assay: CETP inhibition test (3H-cholesterol ester transfer from HDL to biotinylated LDL, SPA)
# Format: biochemical
# Settings: CETP partially purified from human plasma; 37° C., 18 h; concentration at which transfer is reduced by half
# Method: Preparation of CETP • CETP is obtained in partially purified form from human plasma by differential centrifugation and column chromatography and used for the test. For this purpose, human plasma is adjusted to a density of 1.21 g per ml using NaBr and centrifuged at 50,000 rpm at 4° C. for 18 h. The bottom fraction (d>1.21 g/ml) is applied to a Sephadex®Phenyl-Sepharose 4B (Pharmacia) column, washed with 0.15 m NaCl/0.001 M TrisHCl pH 7.4 and subsequently eluted using dist. water. The CETP-active fractions are pooled, dialysed against 50 mM Na-acetate pH 4.5 and applied to a CM-Sepharose® (Pharmacia) column. Elution is subsequently carried out using a linear gradient (0-1 M NaCl). The pooled CETP fractions are dialysed against 10 mM Tris HCl pH 7.4 and subsequently purified further by chromatography over a Mono Q® column (Pharmacia).
# Preparation of Radioactively Labelled HDL • 50 ml of fresh human EDTA plasma are adjusted to a density of 1.12 using NaBr and centrifuged at 4° C. in a Ty 65 rotor at 50,000 rpm for 18 h. […] CETP test • To assess the CETP activity, the transfer of ^3H-cholesterol ester from human HD-lipoproteins to biotinylated LD-lipoproteins is measured. • The reaction is terminated by addition of Streptavidin-SPA® beads (Amersham) and the transferred radioactivity is directly measured in a liquid scintillation counter. • In the assay mixture, […] (˜50,000 cpm) with 10 ml of Biotin-LDL (Amersham) in 50 mM Hepes/0.15 m NaCl/0.1% bovine serum albumin/0.05% NaN3 pH 7.4 are incubated with 10 ml of CETP (1 mg/ml) and 3 ml of a solution of the substance to be tested (dissolved in 10% DMSO/1% BSA) at 37° C. for 18 h. […] of the SPA streptavidin bead solution (TRKQ 7005) are subsequently added, the mixture is incubated with shaking for another 1 h and subsequently measured in a scintillation counter. • The controls used are corresponding incubations with 10 ml of buffer, 10 ml of CETP at 4° C. and 10 ml of CETP at 37° C. • The activity which is transferred in the control experiments with CETP at 37° C. is taken to be 100% transfer. […]
row,IC50 [nM],SMILES
1,23,CC1(C)Cc2nc(C3CCCC3)c([C@@H](F)c3ccc(C(F)(F)F)cc3)c(-c3cccc(F)c3)c2[C@@H](O)C1 [Example 61]
2,6,"CC1(C)Cc2nc(C3CCCC3)c(C(F)c3ccc(C(F)(F)F)cc3)c(-c3ccc(F)cc3)c2C(C)(O)C1 (single isomer, unassigned) [Example 1, 2-Cyclopentyl-4-(4-fluorophenyl)-3-[fluoro-(4-trifluoromethyl-phenyl)-methyl]-5-methyl-7,7-dimethyl-5,6,7,8-tetrahydro-quinolin-5-ol]"
3,10,Cc1ccc(-c2c([C@@H](F)c3ccc(C(F)(F)F)cc3)c(C3CCCC3)nc3c2[C@@H](O)CC(C)(C)C3)cc1 [Example 53]
